The subject of this assay is HOS:HR-1 mice. Nature of the assay: Skin water content after oral ingestion of citrulline in feed (SKICON-200). Format: in vivo. The conditions noted are these: CE-2 feed containing 1.0% by weight of L-citrulline, measured weekly from 1 to 5 weeks, relative to CE-2 feed group. On the procedure: HOS:HR-1 mice (male, 5 weeks old, purchased from Charles River Co., Ltd.) were used in the test. The breeding conditions were that the room temperature was 22±2° C., the humidity was 35±15% and a feed and water were freely ingested.
Each test group consisted of 10 mice. A commercially available powder feed CE-2 (manufactured by Clea Japan) was fed to mice of the first group, CE-2 containing 1.0% by weight of L-citrulline (manufactured by Kyowa Hakko Kogyo Co., Ltd.) was fed to mice of the second group.
The water content of the skin surface on the back thigh upper portion of each mouse was measured with SKICON-200 (manufactured by IBS) every one week, from a week to five weeks after the start-up of the feeding of each feed. The measurement was conducted ten times for each mouse, and an average value of each mouse was obtained. Further, an average value of each test group was calculated.
The relative epidermal water content was calculated according to the following formula using the average value. Relative epidermal water content (%)=(A2/A1)×100 • A1: Epidermal water content of the first group • A2: Epidermal water content of the second group

With `NC(=O)NCCC[C@H](N)C(=O)O` [citrulline, L-citrulline], the “water content of the skin (relative epidermal water content)” value was “markedly improved”.

The values are drawn from patent US8153692B2, “Oral preparation for preventing or improving skin dryness” (Kyowa Hakko Bio Co., Ltd., priority 2005, dated 2012).
